Data taken from patent US20100291181A1, “THERAPEUTIC DEVICES FOR PATTERNED CELL GROWTH” (RUTGERS, THE STATE UNIVERSITY OF NEW JERSEY, priority 2002, published 2010).

Experiments:
[1] = system: dorsal root ganglia or dissociated neurons; assay: Dorsal root ganglia or dissociated neurons plated on laminin pattern; assay type: cell-based, chick; details: pattern of lines, PMMA substrate
Text: Biologically active molecules were stably adsorbed onto a polymeric substrate without chemical modification of the substrate and without the use of linkers. A nondegradable polymer, poly(methyl methylacrylate) (PMMA, […] thickness, Goodfellows) and a degradable polymer, such as poly(hydroxybutyrate (PHB), polycaprolactone or polycaprolactam), were used as polymeric substrates for application of a micropattern of laminin. See FIG. 2 for the general procedure. For these experiments, the polymers were compressed into thin films of 200 μm and cut to the size of coverslips. After activation, polymeric substrates were evaluated via x-ray photoelectron spectroscopy, and/or scanning electron microscopy. […] After laminin absorption, its deposition was determined by incubating the prepared slips with rabbit anti-laminin affinity isolated antibody and FITC-conjugated goat anti-rabbit IgG (see FIG. 3).
Dorsal root ganglia dissected from seven-day old chick embryos were either directly plated onto the patterned substrate or dissociated into individual neurons and plated. […]
The laminin stamped PMMA squares were rinsed with Hank's balanced saline solution and plated with dorsal root ganglia or dissociated neurons in minimal, serum-free media. The samples were incubated at 37° C. for 24 to 48 hours, imaged with a Zeiss laser scanning confocal microscope, and the images analyzed for pattern adherence. […]

[2] = system: primary rat Schwann cells; assay: Schwann cells plated on pattern of laminin lines, orientation analysis; assay type: cell-based
Experimental: Purified primary rat Schwann cells were obtained from Prof. M. B. Bunge, University of Miami, the Miami Project to Cure Paralysis, and maintained in tissue culture flasks with a growth media consisting of Dulbecco's Modified Eagle's Medium (DMEM, Sigma), 10% v/v fetal bovine serum (Gibco), L-glutamine (2 mM, BioWhittaker), penicillin/streptomycin (P/S, 50 U/mL/50 μg/mL, BioWhittaker), 10 μg/mL bovine pituitary extract (Collaborative), and 10 μM forskolin (Sigma).
Schwann cells were rinsed with phosphate buffered saline (PBS, BioWhittaker) and incubated with trypsin ([…], Sigma) for 3 min. An equal amount of serum containing media was added to deactivate the trypsin and the cells were concentrated by centrifugation. […]
The samples were imaged on a Zeiss LSM 410 confocal laser-scanning microscope (CLSM) with a computer controlled laser scanning assembly attached to the microscope using a 20× phase contrast objective in fluorescence mode. An Omnichrome 3 line Argon/Krypton laser (488, 568, 647 nm) was used as the excitation source for double fluorescence measurements, with excitation at 488 nm and 568 nm and emission at 512 nm and 605 nm. […]
Multiple images were taken randomly per sample and analyzed by Image Pro Plus image analysis software (Media Cybernetics). […] Major and minor axes were calculated as well as the angle created by the major axis and the direction of patterning (FIG. 7). […]

**Q.** What does the source list for laminin?
**A.** neuronal process outgrowth along the pattern [1]: most neuronal processes adhere to and grow along the lines of the laminin pattern; orientation of Schwann cells relative to direction of laminin patterning (0°) ([2]; monolayer, ellipse fitting, FIG. 7): majority of the cells are oriented at 0°; process outgrowth along the pattern, Schwann cells ([2]; pattern of lines, FIG. 5): most neuronal processes adhere to and grow along the lines of the laminin pattern
